Assay results from PMC6154719 (Molecules : A Journal of Synthetic Chemistry and Natural …, 2017).

Legend:
Format in all cases: in vitro ADME
CYP1A2 = biological target: T1, CYP1A2 (Homo sapiens, UniProt P05177); test: CYP1A2 (EROD activity, 7-ethoxyresorufin O-deethylation) in human liver microsomes; conditions: for Specific Activity, CYP1A2 (EROD activity): in the presence of 100 µM sesquiterpene, control 1.88 ± 0.19; for inhibition at 5 µM: liver microsomes, probe 7-ethoxyresorufin, human, 5 µM inhibitor
T1 construct: Frozen liver (both rat and human) was thawed; from tissue; host or cells: human liver microsomal fraction
T1 sequence (P05177 1-516): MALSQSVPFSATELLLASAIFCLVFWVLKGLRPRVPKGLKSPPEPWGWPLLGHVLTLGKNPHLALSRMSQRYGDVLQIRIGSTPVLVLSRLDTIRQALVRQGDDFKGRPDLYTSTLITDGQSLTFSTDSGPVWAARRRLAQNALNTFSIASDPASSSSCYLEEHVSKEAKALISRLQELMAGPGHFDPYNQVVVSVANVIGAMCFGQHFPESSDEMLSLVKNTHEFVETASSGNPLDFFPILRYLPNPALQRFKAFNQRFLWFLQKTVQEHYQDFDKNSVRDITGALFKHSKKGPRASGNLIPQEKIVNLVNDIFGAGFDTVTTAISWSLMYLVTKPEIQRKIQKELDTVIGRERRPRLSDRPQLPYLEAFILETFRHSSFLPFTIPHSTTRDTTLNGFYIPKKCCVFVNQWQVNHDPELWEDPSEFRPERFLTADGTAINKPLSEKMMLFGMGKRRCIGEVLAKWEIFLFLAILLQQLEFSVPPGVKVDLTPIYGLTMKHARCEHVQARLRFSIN
Method: (§1) Enzyme activities were assayed in human and rat liver cytosolic and microsomal fractions. The enzyme assays (each performed in 4–8 replicates) were repeated three times (HPLC measurement of CYP activities was repeated only twice, Table 3). Inhibition studies were carried out by incubation of specific substrates in the presence of sesquiterpenes (in the range 0–100 µM).
Enzyme activities of individual CYP forms were measured according to established protocols. The following microsomal CYP activities were tested: CYP2A6, coumarin 7-hydroxylation; CYP2B6, 7-ethoxy-4-(trifluoromethyl)coumarin 7-deethylation, CYP2C9, diclofenac 4′-hydroxylation, CYP2C19 assay, S-mephenytoin 4′-hydroxylation, CYP2D6 on bufuralol 1′-hydroxylation, CYP2E1, chlorzoxazone 6-hydroxylation and CYP3A4, testosterone 6β-hydroxylation, and midazolam 1′-hydroxylation. Activities were measured using the Prominence HPLC system (Shimadzu, Kyoto, Japan), equipped with a LiChroCART 250-4 LiChrospher 100 RP-18 column or Chromolith®HighResolution RP-18 end-capped column (Merck, Darmstadt, Germany) and UV or fluorescence detection, according to the cited literature. Further incubation details are described either in the corresponding references, as well as in the papers from this laboratory e.g., [42, 43, 44]. CYP1A2, 7-ethoxyresorufin O-deethylation, and CYP3A4/2B6 (human), CYP2B1 (rat), benzyloxyresorufin O-debenzylation were measured using the microplate reader Tecan Infinite M200 (Tecan Group; Mannedorf, Switzerland).
Sesquiterpenes CNER, TNER and FAR, non-volatile liquids, were pipetted, and proper concentration was calculated according to density. All compounds were dissolved in DMSO. […] All experiments were performed in three replicates, if not stated otherwise.
(§2) CNER, TNER and FAR at a fixed concentration of 100 µM were screened for inhibition of cytosolic AKR1A1, AKR1C, CBR1, NQO1, SULT, and GST, and microsomal CYPs and UGT. The degree of inhibition caused by sesquiterpenes was compared with non-inhibited control reactions, which contained solvent without sesquiterpenes.
The concentration of sesquiterpenes required for 50% inhibition of enzyme activity, the IC50 value, was determined. […] The IC50 values for each sesquiterpene were determined by plotting sigmoidal dose response curves of specific enzyme activity vs. logarithm of sesquiterpene concentration using GraphPad Prism version 6.07 for Windows (GraphPad Software Inc., La Jolla, CA, USA).
The kinetic inactivation study of the CYP1A2 (EROD activity) and CYP2B/3A (BROD activity), both in rat and human, with TNER, was performed to find out the mechanism of enzyme inhibition by this sesquiterpene. Mechanism of EROD and BROD inhibition was tested at the final ethoxyresorufin or benzyloxyresorufin concentrations 0.5–5.0 µM. The concentration of TNER was 5.0 µM.
Experimental data were fitted to the Michaelis-Menten equation, basic kinetic parameters were determined using the program GraphPad Prism version 6.07 for Windows. The type of inhibition was estimated using a Lineweaver-Burk (double-reciprocal) plot.

AKR1A = biological target: T2, AKR1A (Rattus norvegicus, UniProt P51635); test: AKR1A activity in rat liver subcellular fraction; conditions: 100 µM sesquiterpene, control 3.60 ± 0.13
T2 construct: Frozen liver (both rat and human) was thawed; from tissue; host or cells: rat liver cytosolic fraction
T2 sequence (P51635 1-325): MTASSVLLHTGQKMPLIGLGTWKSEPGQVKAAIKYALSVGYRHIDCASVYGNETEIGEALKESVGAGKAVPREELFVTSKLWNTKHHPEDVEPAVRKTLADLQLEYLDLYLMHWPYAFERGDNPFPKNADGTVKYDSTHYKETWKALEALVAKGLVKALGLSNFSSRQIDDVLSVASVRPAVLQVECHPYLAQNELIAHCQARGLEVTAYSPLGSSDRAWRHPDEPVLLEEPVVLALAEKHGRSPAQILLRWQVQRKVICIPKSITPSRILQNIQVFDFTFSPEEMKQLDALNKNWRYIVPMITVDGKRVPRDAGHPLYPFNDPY
Method: as §1
(§3) The assays of all other enzymes were based on spectrophotometric detection of product formed or detection of decreasing substrate/cofactor levels using microplate reader Tecan Infinite M200 in cytosolic or microsomal fractions. Enzyme activities were determined using slight modifications of previously-published methods: carbonyl reducing enzymes (AKR1A, AKR1C, CBR1 [45], NQO1 [46]), UDP-glucuronosyltransferase (UGT [47]), sulfotransferase (SULT [48]), and cytosolic glutathione-S-transferase (GST [49]).
(§4) Sesquiterpenes CNER, TNER and FAR, non-volatile liquids, were pipetted, and proper concentration was calculated according to density. All compounds were dissolved in DMSO. The final solvent concentration in the inhibition assays was 1%, which had no effect on the enzyme activity (data not shown). Non-enzymatic interference of sesquiterpenes with some compounds in the reaction mixtures (e.g., fluorescence enhancing or quenching) was considered and excluded. All experiments were performed in three replicates, if not stated otherwise.
as §2

AKR1C = AKR1C activity in rat liver subcellular fraction; conditions: 100 µM sesquiterpene, control 14.8 ± 1.8
Method: as §1, §3, §4, §2

GST = GST activity in rat liver subcellular fraction; conditions: 100 µM sesquiterpene, control 350 ± 8
Method: as §1, §3, §4, §2

SMILES	IC50 (CYP1A2; human liver microsomes)	Specific Activity, CYP1A2 (EROD activity) (CYP1A2; human liver microsomes)	inhibition at 5 µM (CYP1A2)	Specific activity, AKR1A (AKR1A)	Specific activity, AKR1C (AKR1C)	Specific activity, GST (GST)	Ki (CYP1A2; human liver microsomes, EROD activity)	type of inhibition, CYP1A2 (EROD) (CYP1A2; human microsomes, 5 µM TNER, ethoxyresorufin 0.5–5.0 µM)
C=CC(C)(O)CC/C=C(/C)CCC=C(C)C (stereo not drawn) [CNER, cis-nerolidol]	2.49 µM	0.163 ± 0.005 pmol/mg/min	50%	3.86 ± 0.47 nmol/mg/min	14.6 ± 2.1 nmol/mg/min	334 ± 22 nmol/mg/min		
CC(C)=CCC/C(C)=C/CC/C(C)=C/CO [FAR, farnesol]	1.83 µM	0.083 ± 0.005 pmol/mg/min	77%	3.48 ± 0.32 nmol/mg/min	14.9 ± 1.5 nmol/mg/min	345 ± 20 nmol/mg/min		
C=CC(C)(O)CC/C=C(\C)CCC=C(C)C (stereo not drawn) [TNER, trans-nerolidol]	8.69 µM	0.287 ± 0.013 pmol/mg/min	38%	3.71 ± 0.56 nmol/mg/min	14.8 ± 1.6 nmol/mg/min	354 ± 37 nmol/mg/min	0.92 ± 0.52 µM	competitively
